≈ marks a conversion by molar mass, not a printed value. Read-outs that look alike come from different tables or passages of the source.
Assays:
S. pneumoniae 157E [1] = assay: microbe, parasite or virus in culture; type: cell-based; conditions: Streptococcus pneumoniae
[2] = test system: Peptidoglycan synthesis of S. aureus RN450; assay: microbe, parasite or virus in culture; type: cell-based; conditions: for IC50 / IC90: Staphylococcus aureus; for IC50: read-out: Peptidoglycan synthesis IC50; for IC90: read-out: Peptidoglycan synthesis IC90
[3] = test system: Protein synthesis of S. aureus RN450; assay: microbe, parasite or virus in culture; type: cell-based; conditions: for IC50 / IC90: Staphylococcus aureus; for IC50: read-out: Protein synthesis IC50; for IC90: read-out: Protein synthesis IC90
S. aureus MRSA5 = assay: microbe, parasite or virus in culture; type: cell-based; conditions: Staphylococcus aureus
S. pneumoniae 700905 [4] = assay: microbe, parasite or virus in culture; type: cell-based; conditions: Streptococcus pneumoniae
S. aureus RN450 = assay: microbe, parasite or virus in culture; type: cell-based; conditions: Staphylococcus aureus
E. faecium 494 = assay: microbe, parasite or virus in culture; type: cell-based; conditions: Enterococcus faecium
E. faecalis 29212 = assay: microbe, parasite or virus in culture; type: cell-based; conditions: Enterococcus faecalis
S. pneumoniae 700905 [5] = test system: S. pneumoniae 700905; parameters: species or system mice; conditions: mouse, in vivo
S. pneumoniae 157E [6] = test system: S. pneumoniae 157E; parameters: species or system mice; conditions: mouse, in vivo
S. pneumoniae 157E [7] = assay: animal or person; type: in vivo, mice; conditions: for responders at 5 mg/kg / responders at 10 mg/kg: Streptococcus pneumoniae, 157E, in Mus musculus, 48 h, read-out: % survival; for efficacy in words: mouse, in vivo
S. aureus RN4250 = assay: microbe, parasite or virus in culture; type: cell-based; conditions: Staphylococcus aureus, RN4250

Compound | MIC (S. pneumoniae 157E [1]) | MIC (S. aureus MRSA5) | MIC (S. pneumoniae 700905 [4]) | MIC (S. aureus RN450) | MIC (E. faecium 494) | MIC (E. faecalis 29212) | also measured
CN(C)[C@@H]1C(O)=C(C(N)=O)C(=O)[C@@]2(O)C(O)=C3C(=O)c4c(O)ccc(C#Cc5ccc(N)cc5)c4C[C@H]3C[C@@H]12 [AA] | 0.5 µg/mL (≈ 0.944 µM) | 0.5 µg/mL (≈ 0.944 µM) | 1 µg/mL (≈ 1.89 µM) | 1 µg/mL (≈ 1.89 µM) | – | – | effect on peptidoglycan biosynthesis in words [2]: affect peptidoglycan biosynthesis; IC50 [2]: 3.8 µg/mL (≈ 7.18 µM); IC90 [2]: 23 µg/mL (≈ 43.4 µM); macromolecular synthesis profile in words [3]: profile similar to class I compounds; IC50 [3]: 0.14 µg/mL (≈ 0.264 µM); IC90 [3]: 1.4 µg/mL (≈ 2.64 µM)
CN(C)[C@@H]1C(O)=C(C(N)=O)C(=O)[C@@]2(O)C(O)=C3C(=O)c4c(O)ccc(-c5ccc(CO)cc5)c4C[C@H]3C[C@@H]12 [AB] | 0.06 µg/mL (≈ 0.115 µM) | 1 µg/mL (≈ 1.92 µM) | 4 µg/mL (≈ 7.68 µM) | 0.06 µg/mL (≈ 0.115 µM) | – | – | IC50 [2]: 18.3 µg/mL (≈ 35.2 µM); IC90 [2]: > 32 µg/mL; IC50 [3]: 0.19 µg/mL (≈ 0.365 µM); IC90 [3]: 1.8 µg/mL (≈ 3.46 µM)
COCCOC(=O)Nc1ccc(-c2ccc(O)c3c2C[C@H]2C[C@H]4[C@H](N(C)C)C(O)=C(C(N)=O)C(=O)[C@@]4(O)C(O)=C2C3=O)cc1 [AD] | 0.13 µg/mL (≈ 0.214 µM) | 1 µg/mL (≈ 1.65 µM) | 0.5 µg/mL (≈ 0.823 µM) | 0.06 µg/mL (≈ 0.0987 µM) | – | – | –
CN(C)[C@@H]1C(O)=C(C(N)=O)C(=O)[C@@]2(O)C(O)=C3C(=O)c4c(O)ccc(-c5ccc(NC(=O)c6ccno6)cc5)c4C[C@H]3C[C@@H]12 [AE] | 0.13 µg/mL (≈ 0.216 µM) | 0.5 µg/mL (≈ 0.833 µM) | 1 µg/mL (≈ 1.67 µM) | 0.06 µg/mL (≈ 0.0999 µM) | – | – | IC50 [2]: 6 µg/mL (≈ 9.99 µM); IC90 [2]: > 32 µg/mL; IC50 [3]: 0.07 µg/mL (≈ 0.117 µM); IC90 [3]: 0.62 µg/mL (≈ 1.03 µM)
CCCCN(CCCC)Cc1cc(N(C)C)c2c(c1O)C(=O)C1=C(O)[C@]3(O)C(=O)C(C(N)=O)=C(O)[C@@H](N(C)C)[C@@H]3C[C@@H]1C2 [AH] | – | 1 µg/mL (≈ 1.67 µM) | 0.06 µg/mL (≈ 0.1 µM) | – | 0.25 µg/mL (≈ 0.418 µM) | 0.25 µg/mL (≈ 0.418 µM) | –
CN(CCCc1cc(N(C)C)c2c(c1O)C(=O)C1=C(O)[C@]3(O)C(=O)C(C(N)=O)=C(O)[C@@H](N(C)C)[C@@H]3C[C@@H]1C2)Cc1ccccc1 [AK] | 0.5 µg/mL (≈ 0.808 µM) | 2 µg/mL (≈ 3.23 µM) | 0.5 µg/mL (≈ 0.808 µM) | 1 µg/mL (≈ 1.62 µM) | – | – | –
C[C@H]1c2ccc(CN3CCC(C(F)(F)F)CC3)c(O)c2C(=O)C2=C(O)[C@]3(O)C(=O)C(C(N)=O)=C(O)[C@@H](N(C)C)C3[C@@H](O)C21 (some centres unmarked) [AN] | – | – | – | – | – | – | PD50 (S. pneumoniae 700905 [5]; iv): 1.4 mg/kg; PD50 (S. pneumoniae 700905 [5]; po): 8.4 mg/kg; PD50 (S. pneumoniae 157E [6]; iv): 0.54 mg/kg; PD50 (S. pneumoniae 157E [6]; po): 2.3 mg/kg
CO/N=C/c1cc(-c2ccc(O)c3c2C[C@H]2C[C@H]4[C@H](N(C)C)C(O)=C(C(N)=O)C(=O)[C@@]4(O)C(O)=C2C3=O)ccc1OC [A] | – | 1 µg/mL (≈ 1.73 µM) | 0.25 µg/mL (≈ 0.433 µM) | 0.25 µg/mL (≈ 0.433 µM) | 1 µg/mL (≈ 1.73 µM) | 1 µg/mL (≈ 1.73 µM) | effect on peptidoglycan biosynthesis in words [2]: affect peptidoglycan biosynthesis; IC50 [2]: 2.1 µg/mL (≈ 3.64 µM); IC90 [2]: 3.8 µg/mL (≈ 6.58 µM); IC50 [3]: 1.9 µg/mL (≈ 3.29 µM); IC90 [3]: 5 µg/mL (≈ 8.66 µM)
CN(C)c1cc(CNC2CCCCC2)c(O)c2c1C[C@H]1C[C@H]3[C@H](N(C)C)C(O)=C(C(N)=O)C(=O)[C@@]3(O)C(O)=C1C2=O [B] | – | 1 µg/mL (≈ 1.76 µM) | 0.5 µg/mL (≈ 0.879 µM) | – | 1 µg/mL (≈ 1.76 µM) | 1 µg/mL (≈ 1.76 µM) | responders at 5 mg/kg (S. pneumoniae 157E [7]; po): 40%; responders at 5 mg/kg (S. pneumoniae 157E [7]; sc): 100%; efficacy in words (S. pneumoniae 157E [7]): efficacious
CC(CF)N(C)Cc1cc(N(C)C)c2c(c1O)C(=O)C1=C(O)[C@]3(O)C(=O)C(C(N)=O)=C(O)[C@@H](N(C)C)[C@@H]3C[C@@H]1C2 (some centres unmarked) [Compound C] | – | 1 µg/mL (≈ 1.78 µM) | 0.25 µg/mL (≈ 0.446 µM) | – | 0.25 µg/mL (≈ 0.446 µM) | 0.5 µg/mL (≈ 0.892 µM) | responders at 10 mg/kg (S. pneumoniae 157E [7]; po): 60%; responders at 5 mg/kg (S. pneumoniae 157E [7]; sc): 100%; efficacy in words (S. pneumoniae 157E [7]): efficacious
CN(Cc1ccccc1)Cc1cc(N(C)C)c2c(c1O)C(=O)C1=C(O)[C@]3(O)C(=O)C(C(N)=O)=C(O)[C@@H](N(C)C)[C@@H]3C[C@@H]1C2 [Compound I] | – | 1 µg/mL (≈ 1.69 µM) | 0.5 µg/mL (≈ 0.846 µM) | – | 1 µg/mL (≈ 1.69 µM) | 1 µg/mL (≈ 1.69 µM) | PD50 (S. pneumoniae 700905 [5]; iv): 2.2 mg/kg; PD50 (S. pneumoniae 700905 [5]; po): 31.6 mg/kg; PD50 (S. pneumoniae 157E [6]; iv): 1 mg/kg; PD50 (S. pneumoniae 157E [6]; po): 13.4 mg/kg; oral activity in words (S. pneumoniae 157E [6]; po): exhibited oral activity
COc1ccc(-c2ccc(O)c3c2C[C@H]2C[C@H]4[C@H](N(C)C)C(O)=C(C(N)=O)C(=O)[C@@]4(O)C(O)=C2C3=O)cc1CN(C)C(C)C [Compound M] | – | – | – | 0.06 µg/mL (≈ 0.0991 µM) | – | – | MIC (S. aureus RN4250): 0.06 µg/mL (≈ 0.0991 µM)
CC1CN(C2CCN(Cc3cc(N(C)C)c4c(c3O)C(=O)C3=C(O)[C@]5(O)C(=O)C(C(N)=O)=C(O)[C@@H](N(C)C)[C@@H]5C[C@@H]3C4)CC2)CC(C)O1 (some centres unmarked) [Compound R] | – | 1 µg/mL (≈ 1.5 µM) | 0.13 µg/mL (≈ 0.195 µM) | – | 1 µg/mL (≈ 1.5 µM) | 2 µg/mL (≈ 2.99 µM) | –
CN(C)Cc1ccc(-c2ccc(O)c3c2C[C@H]2C[C@H]4[C@H](N(C)C)C(O)=C(C(N)=O)C(=O)[C@@]4(O)C(O)=C2C3=O)cc1 [Compound V] | – | – | – | 0.06 µg/mL (≈ 0.11 µM) | – | – | MIC (S. aureus RN4250): 0.06 µg/mL (≈ 0.11 µM)
COC(=O)c1ccc(CNCc2cc(N(C)C)c3c(c2O)C(=O)C2=C(O)[C@]4(O)C(=O)C(C(N)=O)=C(O)[C@H](N(C)C)[C@@H]4C[C@@H]2C3)cc1 [D] | – | 1 µg/mL (≈ 1.58 µM) | 0.25 µg/mL (≈ 0.394 µM) | – | 1 µg/mL (≈ 1.58 µM) | 0.25 µg/mL (≈ 0.394 µM) | responders at 10 mg/kg (S. pneumoniae 157E [7]; po): 0%; responders at 5 mg/kg (S. pneumoniae 157E [7]; sc): 0%

Reference: patent publication US8440646B1 (priority 2006, dated 2013)
